These results are taken from patent US20130273113A1 (priority 2012, published 2013).

The test system of one data set is nasal epithelial cells. Kind of data set: Detection of apoptosis (caspase-3 staining) and necrosis (morphology) in nasal epithelium. The settings on record: 2 hours following nasal treatment, 15 μl.
Data set [1] relates to Bone marrow derived dendritic cells (BMDC). In kind it is cell-based, C57BL/6 mice.
The next data set has as its system TC-1 epithelial cells. It is filed as cell-based, murine.
Data set [2] deals with B6.Cg-Tg(HLA-A/H2-D)2Enge/J mice. Conditions: mouse, in vivo.
The test system of data set [3] is primary nasal septal epithelial cells. In kind it is cell-based, C57BL/6N mice.
A further data set concerns nasal septal tissue. More on the design: species or system C57BL/6 mice. The settings on record: mouse, in vivo.

Regarding `CCCCCCCCCCCCCCCC[n+]1ccccc1` [CPC, cetylpyridinium chloride], the “inflammation in nasal epithelium” value in the data set on nasal epithelial cells was “neutrophilic infiltration”.
On to cholera toxin [CT], for which the “cytokines and chemokines in BMDC supernatant” value in data set [1] was “stimulated IL-1α, IL-1β and MIP-1α in BMDC in addition to IL-10, G-CSF, IL-10, IL-4, IL-6, IL-9, IL-12, IL-15, IL-17, TNF-α, and KC”. The “IL-6, TGF-β and TSLP in TC-1 supernatant” value with TC-1 epithelial cells is “only IL-6 was induced”. For the same compound, in data set [2], the “end titer of anti-HBsAg IgG” value is 6.4×10^5 and the “secreted anti-HBsAg IgA” value is “equivalent local mucosal immune responses”. The “surface expression of MHC class II” value in data set [3] is recorded as “no significant difference”. In the data set with nasal septal tissue, the “cytokine response profile in nasal septal tissue” value is “increases in only IL-6 and IL-12 common to both NE and CT”.
